Source: US20070099853A1, “Agent for improving physiological motor functions” (SUNTORY LIMITED, priority 2003, published 2007)

Assay: FRAP activity test and antioxidant evaluation test using rats
Assay type: in vivo, rats of Wistar strain
Settings: male Wistar rats, oral, 100 mg/kg
Procedure: Male rats of Wistar strain (9 weeks age) were fasted for one night, a pine bark extract mentioned in Example 1 or vitamin C was compulsorily administered via oral route, and blood was collected from tail vein from time to time to prepare plasma samples. FRAP value of the plasma sample was measured by a method of Benzie (Benzie, I. F. F. and Strain, J. J., Anal. Biochem., 1996, Volume 239, pages 70 to 76) and its changes with a lapse of time were traced as an index for antioxidant activity in blood. The plasma sample (10 μL) was added to 990 μL of FRAP reagent containing 20 mM of FeCl3 followed by being allowed to stand at 37° C. for 4 minutes, and changes in absorbance at 593 nm were measured. The same operation was conducted using a solution containing a predetermined concentration of […] sample and, from the changes in absorbance, a calibration curve for FRAP values was prepared.

Question: For `O=C1O[C@H]([C@@H](O)CO)C(O)=C1O` [vitamin C], which “FRAP value in blood” value is on record?
Answer: Its value is “an increase in the FRAP value was also observed”.
